Measurements: US7598250B2, “Cyclic amine BACE-1 inhibitors having a heterocyclic substituent” (Schering Corporation, priority 2003, dated 2009)

Target: T1, sproBACE1 (soluble human BACE1) (Homo sapiens, UniProt P56817)
T1 construct: sBACE1, corresponding to amino acids 1-454; made in house; host or cells: Sf9 insect cells (baculovirus), secreted into the medium
Assay: Peptide Hydrolysis Assay (HTRF, EuK-biotin labeled APPsw substrate)
Assay type: biochemical
Conditions: 7 nM sproBACE1, APPsw substrate, pH 5.0, 3 hr at 30° C., HTRF 665/620 ratio
Excerpt: A predicted soluble form of human BACE1 (sBACE1, corresponding to amino acids 1-454) was generated from the full length BACE1 cDNA (full length human BACE1 cDNA in pCDNA4/mycHisA construct; University of Toronto) by PCR using the advantage-GC cDNA PCR kit (Clontech, Palo Alto, Calif.). A HindIII/Pmel fragment from pCDNA4-sBACE1myc/His was blunt ended using Klenow and subcloned into the Stu I site of pFASTBACI(A) (Invitrogen). A sBACE1mycHis recombinant bacmid was generated by transposition in DH10Bac cells(GIBCO/BRL). Subsequently, the sBACE1mycHis bacmid construct was transfected into sf9 cells using CellFectin (Invitrogen, San Diego, Calif.) in order to generate recombinant baculovirus. […]
Proteins, were eluted from the Q-sepharose column with Buffer B (20 mM HEPES, pH 8.0, 500 mM NaCl). […] Peak protein fractions as determined by the Bradford Assay (Biorad, Calif.) were concentrated using a Centricon 30 concentrator (Millipore). sBACE1 purity was estimated to be ˜90% as assessed by SDS-PAGE and Commassie Blue staining. […]
IC50 determinations for inhibitors, (I), were determined by measuring the percent change of the relative fluorescence at 665 nm divided by the relative fluorescence at 620 nm, (665/620 ratio), in the presence of varying concentrations of I and a fixed concentration of enzyme and substrate. […]

T1 sequence (P56817 22-454): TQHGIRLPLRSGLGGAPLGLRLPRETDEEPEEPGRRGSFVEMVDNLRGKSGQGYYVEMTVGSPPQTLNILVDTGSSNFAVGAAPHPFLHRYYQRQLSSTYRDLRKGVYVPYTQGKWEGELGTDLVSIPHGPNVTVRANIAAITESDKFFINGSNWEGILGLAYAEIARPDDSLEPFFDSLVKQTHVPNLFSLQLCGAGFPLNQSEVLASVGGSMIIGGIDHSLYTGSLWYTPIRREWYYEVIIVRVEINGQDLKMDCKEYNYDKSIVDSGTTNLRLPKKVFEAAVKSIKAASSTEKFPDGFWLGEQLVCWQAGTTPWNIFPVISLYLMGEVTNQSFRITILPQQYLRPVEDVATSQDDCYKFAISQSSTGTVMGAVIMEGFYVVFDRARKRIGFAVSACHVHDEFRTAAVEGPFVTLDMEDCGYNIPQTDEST

SMILES: CCCCCN1CC(C(=O)NC(Cc2cc(F)cc(F)c2)[C@H](O)[C@@H]2NCCN(Cc3ccccc3)C2=O)N(Cc2ccccc2)C1=O (stereo partly shown) [Example 5FF]
- IC50: 1 nM
